This note sets out measurements from PubChem BioAssay AID652273 (Sanford-Burnham Center for Chemical Genomics, 2013).

Calls of active or inactive are those of the source.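 Rule for the calls: active = compounds lowering heat-shock reporter fluorescence with mean IC50 at or below 15 µM, flagged as SKN-1 screen artifacts; inactive = the rest.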

The experiment concerns C. elegans VP596 hsp-16.2 GFP/RFP after heat shock. The experiment in a line: inhibitors of heat-induced hsp-16.2 GFP signal – whole organism, C. elegans VP596, GFP/RFP ratio, round 2, counter-screen for SKN-1 inhibitor project, SAR follow-up (AID 652273). For orientation: A counterscreen serves to expose hits that act by an unwanted route or on another target.

In general, IC50 refers to the point on the concentration scale where inhibition reaches its midpoint. Regarding `CCOc1cc(CN2CCN(C)CC2)cc(Cl)c1OCc1ccc(F)cc1`, the IC50 was > 64 µM (inactive).
Regarding `CCOc1cc(CNC2CC2)cc(Cl)c1OCc1ccc(Cl)cc1F`, the IC50 was > 64 µM (inactive).
For `CCOc1cc(CN(C)C2CCCC2)cc(Cl)c1OCc1ccc(Cl)cc1`, the IC50 is > 64 µM (inactive).
With `CCOc1cc(CN2CCCC2)cc(Cl)c1OCc1ccc(Cl)cc1`, the IC50 is > 64 µM (inactive).
Next, `CCOc1cc(CN2CCCC2)cc(Cl)c1OCc1ccc(F)cc1`: > 64 µM (inactive); `CCOc1cc(CN2CCCCC2)cc(Cl)c1OCc1ccc(F)cc1`: > 64 µM (inactive); `Clc1ccc(COc2c(Cl)cc(CNC3CCCC3)cc2Cl)cc1`: > 64 µM (inactive).
`CCOc1cc(CN2CCN(C)CC2)cc(Cl)c1OCc1ccc(Cl)cc1`: the IC50 is > 64 µM (inactive).
As to `CCOc1cc(CNC2CCCC2)cc(Cl)c1OCc1ccc(Br)cc1`, the IC50 is > 64 µM (inactive).
As to `CCOc1cc(CNC2CC2)cc(Cl)c1OCc1ccc(Cl)cc1`, the IC50 is > 64 µM (inactive).
Take `C#CCNCc1cc(Cl)c(OCc2ccc(Cl)cc2)c(OCC)c1`: the IC50 is > 64 µM (inactive).
Next, `CCOc1cc(CN2CCOCC2)cc(Cl)c1OCc1ccc(F)cc1`: > 64 µM (inactive); `CCOc1cc(CNC2CCCC2)cc(Cl)c1OCc1ccc(Cl)cc1F`: > 64 µM (inactive); `CCOc1cc(CN2CCOCC2)cc(Cl)c1OCc1ccc(Cl)cc1`: > 64 µM (inactive).
Take `C=CCNCc1cc(Cl)c(OCc2ccc(Cl)cc2)c(OCC)c1`: the IC50 was > 64 µM (inactive).
Take `CCOc1cc(CNC2CCCC2)cc(Cl)c1OCc1ccc(C#N)cc1`: the IC50 is > 64 µM (inactive).
For the molecule `CCOc1cc(CN(C(C)=O)C2CCCC2)cc(Cl)c1OCc1ccc(Cl)cc1`, the IC50 is > 64 µM (inactive).
Turning to `CCOc1cc(CNCC2CC2)cc(Cl)c1OCc1ccc(Cl)cc1`, the IC50 was > 64 µM (inactive).
Regarding `COc1cc(CNC2CCCC2)cc(F)c1OCc1ccc(Cl)cc1`, the IC50 is > 64 µM (inactive).
For `COc1cc(CNC2CCCC2)cc(Cl)c1OCc1ccc(Cl)cc1`, the IC50 was > 64 µM (inactive).
The result for `CCOc1cc(CN2CCCCC2)cc(Cl)c1OCc1ccc(Cl)cc1` reads > 64 µM (inactive).
`CCOc1cc(CNC2CC2)cc(Cl)c1OCc1ccc(C#N)cc1`: the IC50 is > 64 µM (inactive).
Next, `COc1cc(CNC2CCCC2)cc(Br)c1OCc1ccc(Cl)cc1`: > 64 µM (inactive); `CCOc1cc(CNC)cc(Cl)c1OCc1ccc(Cl)cc1`: > 64 µM (inactive); `CCCNCc1cc(Cl)c(OCc2ccc(Cl)cc2)c(OCC)c1`: > 64 µM (inactive).
For `Cc1cc(CNC2CCCC2)cc(C)c1OCc1ccc(Cl)cc1`, the IC50 is > 64 µM (inactive).
On to `CCOc1cc(CNC2CC2)cc(Cl)c1OCc1ccc(Br)cc1`, for which the IC50 is > 64 µM (inactive).
